How the values were obtained:
[1] = human free (unbound) effective therapeutic plasma concentration used to calculate multiples; cited from earlier work
[2] = tested on: human ventricular trabeculae; assay: Action potential recording and pro-arrhythmic score analysis in human ventricular trabeculae (hVT); conditions: 1Hz; for Beat Escape (raw data) / EADs (raw data) / Refractoriness Escape (raw data): n=4 trabeculae;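 as to all read-outs here: sharp microelectrode action potential recordings at 37°C in Tyrode-perfused trabeculae, 4 cumulative concentrations each applied 31 min, values averaged over last 30 APs, vehicle 0.1% DMSO as control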

Cc1cccc(C)c1OCC(C)N (stereo not drawn) [MEXILETINE, Mexiletine]
Free ETPC [1]: 4.1 µM
AMAX (average raw data) ([2]; 0.7-FOLD free ETPC (4.1µM)): 111
AMAX percentage change compared to vehicle control ([2]; 0.7-FOLD free ETPC (4.1µM)): 0%
APD30 (average raw data) ([2]; 0.7-FOLD free ETPC (4.1µM)): 174
APD30 percentage change compared to vehicle control ([2]; 0.7-FOLD free ETPC (4.1µM)): -5%
APD50 (average raw data) ([2]; 0.7-FOLD free ETPC (4.1µM)): 231
APD50 percentage change compared to vehicle control ([2]; 0.7-FOLD free ETPC (4.1µM)): -3%
APD90 (average raw data) ([2]; 0.7-FOLD free ETPC (4.1µM)): 321
APD90 percentage change compared to vehicle control ([2]; 0.7-FOLD free ETPC (4.1µM)): -1%
Alternans (average raw data) ([2]; 0.7-FOLD free ETPC (4.1µM)): 0.72
Alternans percentage change compared to vehicle control ([2]; 0.7-FOLD free ETPC (4.1µM)): 7%
Beat Escape percentage change compared to vehicle control ([2]; 0.7-FOLD free ETPC (4.1µM)): 25%
EADs percentage change compared to vehicle control ([2]; 0.7-FOLD free ETPC (4.1µM)): 0%
ERP (average raw data) ([2]; 0.7-FOLD free ETPC (4.1µM)): 0.43
ERP percentage change compared to vehicle control ([2]; 0.7-FOLD free ETPC (4.1µM)): 1%
Max Dispersion (average raw data) ([2]; 0.7-FOLD free ETPC (4.1µM)): 3.75
Max Dispersion percentage change compared to vehicle control ([2]; 0.7-FOLD free ETPC (4.1µM)): 0%
RMP (average raw data) ([2]; 0.7-FOLD free ETPC (4.1µM)): -91
RMP percentage change compared to vehicle control ([2]; 0.7-FOLD free ETPC (4.1µM)): 1%
Refractoriness Escape percentage change compared to vehicle control ([2]; 0.7-FOLD free ETPC (4.1µM)): 0%
STV (average raw data) ([2]; 0.7-FOLD free ETPC (4.1µM)): 0.51
STV percentage change compared to vehicle control ([2]; 0.7-FOLD free ETPC (4.1µM)): 1%
Triangulation (average raw data) ([2]; 0.7-FOLD free ETPC (4.1µM)): 147
Triangulation percentage change compared to vehicle control ([2]; 0.7-FOLD free ETPC (4.1µM)): 4%
Beat Escape (raw data) ([2]; 0.7-FOLD free ETPC (4.1µM)): 1
EADs (raw data) ([2]; 0.7-FOLD free ETPC (4.1µM)): 0
Refractoriness Escape (raw data) ([2]; 0.7-FOLD free ETPC (4.1µM)): 0
AMAX (average raw data) ([2]; 7-FOLD free ETPC (4.1µM)): 109
AMAX percentage change compared to vehicle control ([2]; 7-FOLD free ETPC (4.1µM)): -3%
APD30 (average raw data) ([2]; 7-FOLD free ETPC (4.1µM)): 158
APD30 percentage change compared to vehicle control ([2]; 7-FOLD free ETPC (4.1µM)): -13%
APD50 (average raw data) ([2]; 7-FOLD free ETPC (4.1µM)): 206
APD50 percentage change compared to vehicle control ([2]; 7-FOLD free ETPC (4.1µM)): -14%
APD90 (average raw data) ([2]; 7-FOLD free ETPC (4.1µM)): 297
APD90 percentage change compared to vehicle control ([2]; 7-FOLD free ETPC (4.1µM)): -8%
Alternans (average raw data) ([2]; 7-FOLD free ETPC (4.1µM)): 0.68
Alternans percentage change compared to vehicle control ([2]; 7-FOLD free ETPC (4.1µM)): 0%
Beat Escape percentage change compared to vehicle control ([2]; 7-FOLD free ETPC (4.1µM)): 25%
EADs percentage change compared to vehicle control ([2]; 7-FOLD free ETPC (4.1µM)): 0%
ERP (average raw data) ([2]; 7-FOLD free ETPC (4.1µM)): 0.41
ERP percentage change compared to vehicle control ([2]; 7-FOLD free ETPC (4.1µM)): -5%
Max Dispersion (average raw data) ([2]; 7-FOLD free ETPC (4.1µM)): 2.82
Max Dispersion percentage change compared to vehicle control ([2]; 7-FOLD free ETPC (4.1µM)): -25%
RMP (average raw data) ([2]; 7-FOLD free ETPC (4.1µM)): -91
RMP percentage change compared to vehicle control ([2]; 7-FOLD free ETPC (4.1µM)): 1%
Refractoriness Escape percentage change compared to vehicle control ([2]; 7-FOLD free ETPC (4.1µM)): 0%
STV (average raw data) ([2]; 7-FOLD free ETPC (4.1µM)): 0.49
STV percentage change compared to vehicle control ([2]; 7-FOLD free ETPC (4.1µM)): -3%
Triangulation (average raw data) ([2]; 7-FOLD free ETPC (4.1µM)): 140
Triangulation percentage change compared to vehicle control ([2]; 7-FOLD free ETPC (4.1µM)): -1%
Beat Escape (raw data) ([2]; 7-FOLD free ETPC (4.1µM)): 1
EADs (raw data) ([2]; 7-FOLD free ETPC (4.1µM)): 0
Refractoriness Escape (raw data) ([2]; 7-FOLD free ETPC (4.1µM)): 0
AMAX (average raw data) ([2]; 24-FOLD free ETPC (4.1µM)): 102
AMAX percentage change compared to vehicle control ([2]; 24-FOLD free ETPC (4.1µM)): -9%
APD30 (average raw data) ([2]; 24-FOLD free ETPC (4.1µM)): 137
APD30 percentage change compared to vehicle control ([2]; 24-FOLD free ETPC (4.1µM)): -25%
APD50 (average raw data) ([2]; 24-FOLD free ETPC (4.1µM)): 180
APD50 percentage change compared to vehicle control ([2]; 24-FOLD free ETPC (4.1µM)): -25%
APD90 (average raw data) ([2]; 24-FOLD free ETPC (4.1µM)): 282
APD90 percentage change compared to vehicle control ([2]; 24-FOLD free ETPC (4.1µM)): -13%
Alternans (average raw data) ([2]; 24-FOLD free ETPC (4.1µM)): 17.51
Alternans percentage change compared to vehicle control ([2]; 24-FOLD free ETPC (4.1µM)): 2481%
Beat Escape percentage change compared to vehicle control ([2]; 24-FOLD free ETPC (4.1µM)): 75%
EADs percentage change compared to vehicle control ([2]; 24-FOLD free ETPC (4.1µM)): 0%
ERP (average raw data) ([2]; 24-FOLD free ETPC (4.1µM)): 0.39
ERP percentage change compared to vehicle control ([2]; 24-FOLD free ETPC (4.1µM)): -8%
Max Dispersion (average raw data) ([2]; 24-FOLD free ETPC (4.1µM)): 50.33
Max Dispersion percentage change compared to vehicle control ([2]; 24-FOLD free ETPC (4.1µM)): 1242%
RMP (average raw data) ([2]; 24-FOLD free ETPC (4.1µM)): -89
RMP percentage change compared to vehicle control ([2]; 24-FOLD free ETPC (4.1µM)): -1%
Refractoriness Escape percentage change compared to vehicle control ([2]; 24-FOLD free ETPC (4.1µM)): 0%
STV (average raw data) ([2]; 24-FOLD free ETPC (4.1µM)): 12.96
STV percentage change compared to vehicle control ([2]; 24-FOLD free ETPC (4.1µM)): 2873%
Triangulation (average raw data) ([2]; 24-FOLD free ETPC (4.1µM)): 145
Triangulation percentage change compared to vehicle control ([2]; 24-FOLD free ETPC (4.1µM)): 3%
Beat Escape (raw data) ([2]; 24-FOLD free ETPC (4.1µM)): 3
EADs (raw data) ([2]; 24-FOLD free ETPC (4.1µM)): 0
Refractoriness Escape (raw data) ([2]; 24-FOLD free ETPC (4.1µM)): 0
AMAX (average raw data) ([2]; 73-FOLD free ETPC (4.1µM)): 86
AMAX percentage change compared to vehicle control ([2]; 73-FOLD free ETPC (4.1µM)): -22%
APD30 (average raw data) ([2]; 73-FOLD free ETPC (4.1µM)): 120
APD30 percentage change compared to vehicle control ([2]; 73-FOLD free ETPC (4.1µM)): -27%
APD50 (average raw data) ([2]; 73-FOLD free ETPC (4.1µM)): 165
APD50 percentage change compared to vehicle control ([2]; 73-FOLD free ETPC (4.1µM)): -27%
APD90 (average raw data) ([2]; 73-FOLD free ETPC (4.1µM)): 277
APD90 percentage change compared to vehicle control ([2]; 73-FOLD free ETPC (4.1µM)): -9%
Alternans (average raw data) ([2]; 73-FOLD free ETPC (4.1µM)): 2.53
Alternans percentage change compared to vehicle control ([2]; 73-FOLD free ETPC (4.1µM)): 272%
EADs percentage change compared to vehicle control ([2]; 73-FOLD free ETPC (4.1µM)): 0%
ERP (average raw data) ([2]; 73-FOLD free ETPC (4.1µM)): 0.42
ERP percentage change compared to vehicle control ([2]; 73-FOLD free ETPC (4.1µM)): -1%
Max Dispersion (average raw data) ([2]; 73-FOLD free ETPC (4.1µM)): 6.30
Max Dispersion percentage change compared to vehicle control ([2]; 73-FOLD free ETPC (4.1µM)): 68%
RMP (average raw data) ([2]; 73-FOLD free ETPC (4.1µM)): -76
RMP percentage change compared to vehicle control ([2]; 73-FOLD free ETPC (4.1µM)): -13%
Refractoriness Escape percentage change compared to vehicle control ([2]; 73-FOLD free ETPC (4.1µM)): 0%
STV (average raw data) ([2]; 73-FOLD free ETPC (4.1µM)): 1.74
STV percentage change compared to vehicle control ([2]; 73-FOLD free ETPC (4.1µM)): 182%
Triangulation (average raw data) ([2]; 73-FOLD free ETPC (4.1µM)): 157
Triangulation percentage change compared to vehicle control ([2]; 73-FOLD free ETPC (4.1µM)): 12%
Beat Escape (raw data) ([2]; 73-FOLD free ETPC (4.1µM)): 1

Source: PMC5760531, “Action Potential Recording and Pro-arrhythmia Risk Analysis in Human Ventricular Trabeculae” (Frontiers in Physiology, 2018)
